Entries after “also recorded” stand apart in the source; their conditions may differ. Like-named read-outs stand apart in the source and are kept apart here.
Assays:
[1] = tested on: human vascular endothelial cells (HUVECs)
Procedure: Then, 2 mL of trypsin/EDTA was added to the cells, and the cells were detached by incubation at 37° C. in a 5% CO2 environment. After the cell detachment, 5 mL/dish of a culture medium was added, and the cells were transferred to a 15-mL tube and centrifuged at 1200 rpm for 5 minutes in a centrifuge. The supernatant was removed, and then, the number of cells was adjusted to a cell density of 5×10^4 cells/mL using a cell counting kit by the addition of 5 mL of a culture medium. Then, two 6-well plates were used, and the solution with the adjusted HUVEC density was inoculated at 4 mL/well to 3 wells of each plate. Each phytochemical component was added at 4 μL (final concentration: 10 μM)/well to one well of each plate. Also, a phytochemical dissolving solution DMSO was added at 4 μL/well to the remaining wells to prepare a control. […]
Serial dilutions of auraptene were added to the cells, and the cell death of the HUVECs caused by heat stress was observed by crystal violet staining.

[2] = tested on: PPARα; assay: PPARα expression in HUVECs, antibody staining, confocal microscopy; type: cell-based, human
Procedure: (§1) Then, six 35-mm dishes were provided, and 2 mL/dish of the solution with the adjusted HUVEC density was inoculated. Auraptene (10 mM) and tangeretin (10 mM) were each added at 2 μL (final concentration: 10 μM)/dish to two dishes. Also, DMSO was added at 2 μL/dish to the remaining 2 dishes to prepare a control.
(§2) The supernatant of the HUVECs cultured in each 35-mm dish was removed, and 2 mL/dish of 4% paraformaldehyde in a phosphate buffer solution was added. The cells were left standing at room temperature for 1 hour.
(§3) The solution was removed, and then, the cells were rinsed twice. 2 mL/dish of 0.5% Triton-X00 (Wako Pure Chemical Industries, Ltd.) in PBS was added, and the cells were left standing at room temperature for 5 minutes. The solution was removed, and then, the cells were rinsed twice. 1 mL/dish of an anti-ABCD3 antibody, an anti-PPARα antibody or an anti-PPARγ antibody, each of which was diluted 150-fold with a FACS buffer, was added, and the cells were left standing at room temperature for 2 hours for reaction.
(§4) The solution was removed, and then, the cells were rinsed twice. 1 mL/dish of DyLight 649-labeled anti-Rabbit IgG antibody diluted 500-fold with a FACS buffer was added, and the cells were left standing at room temperature for 1 hour in the dark for reaction. The solution was removed, and then, the cells were rinsed twice. Two drops of Diamond Antifade Mountant with DAPI were added to the cells, and a round glass cover was put on the cells, followed by fluorescence photographing under a confocal laser scanning microscope.

[3] = tested on: PPARγ; assay: PPARγ expression in HUVECs, antibody staining, confocal microscopy; type: cell-based, human
Procedure: as §1, §2, §3, §4

[4] = tested on: ABCD3; assay: ABCD3 expression in HUVECs, antibody staining, confocal microscopy; type: cell-based, human; conditions: usual culture and heat stress load (40° C. for 3 days), vs DMSO
Procedure: as §1, §2, §3
The solution was removed, and then, the cells were rinsed twice. […] Two drops of Diamond Antifade Mountant with DAPI were added to the cells, and a round glass cover was put on the cells, followed by fluorescence photographing under a confocal laser scanning microscope.

[5] = tested on: human vascular endothelial cells (HUVECs); assay: DiOC6 / PI staining and flow cytometry of HUVECs under heat stress load; type: cell-based; conditions: heat stress load 40° C. for 2 days, flow cytometry, vs DMSO
Procedure: Two days later, the culture solution of each well was removed with an aspirator. […] The supernatant was removed, and then, 5 mL of a culture medium at 37° C. was added to the cells and stirred. After the stirring, DiOC6 (final concentration: 80 nM) was added to each 15-mL tube and reacted at the same temperature as the culture temperature for 30 minutes.
The supernatant was removed, and then, 1 mL of a culture medium was added to the cells, and 2 μL of PI (Sigma-Aldrich Co. LLC) was added. The cells thus supplemented were transferred to a FACS tube and measured in a flow cytometer (BD).
In order to quantify the effects, the cytotoxicity suppressive effects of auraptene (component A) and tangeretin (component T) inhibiting the cell death caused by the load of heat stress were quantified using DiOC6 staining and flow cytometry as described above. The DiOC6 dye is a reagent for measuring mitochondrial activity and is a reagent that can perform measurement based on the attenuation of the amount of fluorescence by cytotoxicity (cell death, etc.).

[6] = tested on: fat droplets in human vascular endothelial cells (HUVECs); assay: Intracellular fat droplets, BODIPY staining, confocal microscopy; type: cell-based
Procedure: as §1, with “Then, nine” for “Then, six”, “to three” for “to two”, “remaining 3” for “remaining 2”
The supernatant of the HUVECs cultured in each 35-mm dish was removed, and 2 mL/dish of 4% paraformaldehyde in a phosphate buffer solution was added. The cells were left standing at room temperature for 1 hour for cell fixation. The solution was removed, and then, the cells were rinsed twice. 1 mL/dish of BODIPY diluted 2000-fold with a FACS buffer was added, and the cells were left standing at room temperature for 30 minutes in the dark for reaction.
The solution was removed, and then, the cells were rinsed twice. Two drops of Diamond Antifade Mountant with DAPI were added to the cells, and a round glass cover was put on the cells, followed by fluorescence photographing under a confocal laser scanning microscope.

[7] = HUVECs, 40° C. for 2 days, final concentration 10 μM
[8] = HUVECs, 40° C. and 1 day, 10 μM, vs DMSO
[9] = Table 2 summary, HUVECs 40° C., 37° C. as comparative control

SMILES: C[N+](C)(C)C[C@H](O)CC(=O)[O-] [L-carnitine, reference compound]
- concentration at which the cell death suppressive effect was confirmed (value in brackets) ([1]; HUVECs, 40° C. for 3 days, crystal violet staining): 15 mM
- concentration at which the cell death suppressive effect was observed ([1]; HUVECs, 40° C. for 3 days, 0, 1.2 or 2.5 mg/ml): 2.5 mg/mL
- concentration required relative to auraptene ([1]; cell death suppressive effect, HUVECs 40° C.): approximately 25000 times

SMILES: CC(C)(Oc1ccc(CCNC(=O)c2ccc(Cl)cc2)cc1)C(=O)O [bezafibrate, reference compound]
- suppression of cytotoxicity caused by the load of heat stress (phase contrast microscopic observation) [1]: unable to suppress the cytotoxicity

SMILES: C[N+](C)(C)[C@@H](Cc1c[nH]c(=S)[nH]1)C(=O)[O-] [ergothioneine, reference compound]
- suppression of cytotoxicity caused by the load of heat stress (phase contrast microscopic observation) [1, 7]: unable to suppress the cytotoxicity

SMILES: COc1ccc(-c2cc(=O)c3c(OC)c(OC)c(OC)c(OC)c3o2)cc1OC [nobiletin, reference compound]
- suppression of cytotoxicity caused by the load of heat stress (phase contrast microscopic observation) [1, 7]: unable to suppress the cytotoxicity

SMILES: COc1ccc2ccc(=O)oc2c1CC=C(C)C [osthol, reference compound]
- suppression of cytotoxicity caused by the load of heat stress (phase contrast microscopic observation) [1, 7]: unable to suppress the cytotoxicity

SMILES: Oc1ccc(C=Cc2cc(O)cc(O)c2)cc1 [resveratrol, reference compound]
- suppression of cytotoxicity caused by the load of heat stress (phase contrast microscopic observation) [1]: unable to suppress the cytotoxicity

SMILES: C[S+]([O-])CCCCN=C=S (centres unmarked) [sulforaphane, reference compound]
- suppression of cytotoxicity caused by the load of heat stress (phase contrast microscopic observation) [1]: unable to suppress the cytotoxicity

SMILES: COc1ccc(-c2cc(=O)c3c(OC)c(OC)c(OC)c(OC)c3o2)cc1 [tangeretin, 4′,5,6,7,8-pentamethoxyflavone]
- expression of PPARα [2, 8]: increase in the expression of PPARα
- PPARα [2, 9]: Increased
- Cytotoxicity (cell death) [1]: Suppressed
- cell survival by crystal violet staining ([1]; HUVECs cultured at 40° C. for 3 days, vs DMSO): evidently increased cell survival
- expression of PPARγ [3, 8]: increasing effect was not observed
- PPARγ [3, 9]: Increased
- change in the expression of ABCD3 [4]: change in the expression of ABCD3 was not observed
- number of DiOC6 staining-positive cells (suppression of cytotoxicity, cell death) [5]: increased the number of DiOC6 staining-positive cells
- amount of fat droplets under heat stress load ([6]; HUVECs, 40° C. for 2 days, 10 μM, BODIPY, vs DMSO): decrease in the amount of fat droplets; also recorded: decreased the amount of fat droplets
- amount of fat droplets at usual culture ([6]; HUVECs, usual culture (37° C.), 10 μM, vs DMSO): no change in the amount of fat droplets
- Amount of fat droplets [6, 9]: Decreased
